A word on the Papp A→B: it is how fast a substance crosses the layer from the apical side. Broadly, the Papp B→A is the apparent permeability from the basolateral to the apical side of a cell layer. In general, efflux ratio refers to the permeability from basolateral to apical divided by that in the opposite direction, in the common usage.

One data set concerns Caco-2 cells. The experiment in a line: Caco-2 bidirectional permeability assay. It is filed as in vitro ADME, human.
The nature of data set [1]: Caco-2 bidirectional permeability assay. The following applies: human. In kind it is in vitro ADME, human.
In another data set the test system is Mouse MES. The experiment in a line: Maximal electroshock test. In kind it is in vivo. The following applies: at 100 mg/kg. A general note: The maximal electroshock test induces tonic seizures with an electrical stimulus.
Another data set deals with rat hippocampal cultures. The data set is described as follows: Neuroprotection from acute glutamate toxicity, CFDA neuronal viability assay. In kind it is cell-based. The conditions noted are these: initial testing of the core compound; assay not specified.
Another data set concerns Mouse scPTZ. The experiment in a line: Subcutaneous pentylenetetrazol. In kind it is in vivo.
The next data set relates to Rat MES. The data set is described as follows: Maximal electroshock test. In kind it is in vivo. The following applies: at 30 mg/kg.
Another data set relates to Mouse 6-Hz test. The data set is described as follows: 6-Hz seizure test, mouse. In kind it is in vivo. The following applies: at 100 mg/kg.

Each structure is given as a SMILES string. Bounds are passed on as bounds.

On to `CC(C)NCC(O)COc1cccc2ccccc12` (stereo not shown) [Propranolol control, Propranolol], for which the Permeability classification entry in the data set with Caco-2 cells is on record as “High”. Besides, the apical-to-basolateral permeability (Papp A→B) at 5 µM in data set [1] is 171 nm/s.

As to `NS(=O)(=O)NCC(O)c1ccccc1F` (stereo not shown) [AND-171, 2-(2-Fluorophenyl)-2-hydroxyethylsulfamide], in the data set on Mouse MES, the “Mouse MES (i.p.), animals protected/tested” value is recorded as 1/3 at 100 mg/kg. This molecule showed a potency for neuroprotection with rat hippocampal cultures of 0.03 to 0.1 µM. Besides, the “Mouse scPTZ (s.c. EC50)” value in the data set on Mouse scPTZ (PTZ 85 mg/kg s.c.) was above 300 mg/kg. In the data set with Mouse scPTZ (at 300 mg/kg i.p.), the “activity in the mouse pentylenetetrazol model” value is on record as “no demonstrated activity”. Besides, the “Rat MES (oral), animals protected/tested” value in the data set with Rat MES is on record as 1/4 at 30 mg/kg. For the same molecule, the “Mouse 6-Hz test (i.p.), animals protected/tested” value with Mouse 6-Hz test is recorded as 1/4 at 100 mg/kg.

`C[C@H]1O[C@@H](O[C@H]2[C@@H](O)C[C@H](O[C@H]3[C@@H](O)C[C@H](O[C@H]4CC[C@@]5(C)[C@H](CC[C@@H]6[C@@H]5C[C@@H](O)[C@]5(C)[C@@H](C7=CC(=O)OC7)CC[C@]65O)C4)O[C@@H]3C)O[C@@H]2C)C[C@H](O)[C@@H]1O` [Digoxin control, Digoxin]: in the data set with Caco-2 cells, the Permeability classification result is “Low” and the Significant efflux result was “Yes”. Moreover, in data set [1], the Papp A→B at 5 µM worked out at 6.2 nm/s, the Papp B→A at 5 µM came to 125 nm/s and the efflux ratio at 5 µM was determined as 20.2.
